One test has as its system JeKo-1. The test is described as follows: Antiproliferative activity against human JeKo-1 assessed as reduction in cell growth by MTS assay. It is filed as functional, cell-based.
A further test deals with OCI-Ly10. The test is described as follows: Antiproliferative activity against human OCILY10 assessed as reduction in cell growth by MTS assay. The test is classed as functional, cell-based. Background: Tetrazolium assays rely on reduction of a dye to a coloured formazan, in cell work by metabolically active cells.
A further test relates to HEK293. The test is described as follows: Cytotoxicity against human HEK293 cells assessed as reduction in cell viability by MTS assay. It is filed as cell-based.
The subject of the next test is Vero. As to the kind of experiment: Cytotoxicity against monkey Vero cells assessed as reduction in cell viability by MTS assay. The test is classed as cell-based. The settings on record: Chlorocebus sabaeus.
Test [1] concerns the target Phosphatidylinositol 4,5-bisphosphate 3-kinase catalytic subunit gamma isoform (Homo sapiens, UniProt P48736). The test is described as follows: Inhibition of PI3Kgamma (unknown origin).
A further test has as its system L02. The test is described as follows: Cytotoxicity against human L02 cells assessed as reduction in cell viability by MTS assay. The test is classed as cell-based.
A further test has as its system OCI-Ly3. As to the kind of experiment: Antiproliferative activity against human OCILY3 assessed as reduction in cell growth by MTS assay. The test is classed as functional, cell-based.
Test [2] has as its target Phosphatidylinositol 4,5-bisphosphate 3-kinase catalytic subunit alpha isoform (Homo sapiens, UniProt P42336). As to the kind of experiment: Inhibition of PI3Kalpha (unknown origin).
In test [3] the target is Phosphatidylinositol 4,5-bisphosphate 3-kinase catalytic subunit beta isoform (Homo sapiens, UniProt P42338). As to the kind of experiment: Inhibition of PI3Kbeta (unknown origin).
Chain of Phosphatidylinositol 4,5-bisphosphate 3-kinase catalytic subunit beta isoform (P42338 whole entry, canonical isoform): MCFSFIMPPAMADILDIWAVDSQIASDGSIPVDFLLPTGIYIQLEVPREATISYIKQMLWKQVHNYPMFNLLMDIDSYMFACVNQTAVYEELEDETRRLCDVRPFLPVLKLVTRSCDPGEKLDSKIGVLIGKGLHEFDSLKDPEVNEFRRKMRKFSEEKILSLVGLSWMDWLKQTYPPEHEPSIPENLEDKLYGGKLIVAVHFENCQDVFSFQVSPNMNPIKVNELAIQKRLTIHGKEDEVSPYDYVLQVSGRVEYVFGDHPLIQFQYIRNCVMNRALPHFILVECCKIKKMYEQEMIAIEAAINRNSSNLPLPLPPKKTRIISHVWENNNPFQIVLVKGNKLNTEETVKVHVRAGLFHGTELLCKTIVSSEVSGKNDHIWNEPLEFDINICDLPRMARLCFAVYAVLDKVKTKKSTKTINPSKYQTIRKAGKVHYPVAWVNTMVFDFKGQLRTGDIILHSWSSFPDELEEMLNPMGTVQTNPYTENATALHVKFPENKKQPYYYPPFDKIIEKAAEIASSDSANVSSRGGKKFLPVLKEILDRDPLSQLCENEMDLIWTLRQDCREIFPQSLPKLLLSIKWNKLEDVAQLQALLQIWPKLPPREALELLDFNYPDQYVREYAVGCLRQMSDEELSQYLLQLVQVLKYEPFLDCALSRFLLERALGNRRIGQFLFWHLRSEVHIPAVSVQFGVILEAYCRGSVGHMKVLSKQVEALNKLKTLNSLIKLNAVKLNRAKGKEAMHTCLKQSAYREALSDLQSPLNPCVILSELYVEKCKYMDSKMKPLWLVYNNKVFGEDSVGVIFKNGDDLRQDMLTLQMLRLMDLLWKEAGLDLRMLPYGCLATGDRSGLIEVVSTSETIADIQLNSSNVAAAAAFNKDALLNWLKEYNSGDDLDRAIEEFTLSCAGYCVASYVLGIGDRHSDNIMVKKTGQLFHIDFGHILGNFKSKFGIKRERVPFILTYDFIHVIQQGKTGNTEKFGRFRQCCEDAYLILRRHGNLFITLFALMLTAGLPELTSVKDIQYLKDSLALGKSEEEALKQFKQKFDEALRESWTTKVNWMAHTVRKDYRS
The next test concerns SU-DHL-6. The test is described as follows: Antiproliferative activity against human SU-DHL-6 assessed as reduction in cell growth by MTS assay. The test is classed as functional, cell-based.
Test [4] has as its target T1, Phosphatidylinositol 4,5-bisphosphate 3-kinase catalytic subunit delta isoform (Homo sapiens, UniProt O00329).
T1 sequence (O00329 whole entry): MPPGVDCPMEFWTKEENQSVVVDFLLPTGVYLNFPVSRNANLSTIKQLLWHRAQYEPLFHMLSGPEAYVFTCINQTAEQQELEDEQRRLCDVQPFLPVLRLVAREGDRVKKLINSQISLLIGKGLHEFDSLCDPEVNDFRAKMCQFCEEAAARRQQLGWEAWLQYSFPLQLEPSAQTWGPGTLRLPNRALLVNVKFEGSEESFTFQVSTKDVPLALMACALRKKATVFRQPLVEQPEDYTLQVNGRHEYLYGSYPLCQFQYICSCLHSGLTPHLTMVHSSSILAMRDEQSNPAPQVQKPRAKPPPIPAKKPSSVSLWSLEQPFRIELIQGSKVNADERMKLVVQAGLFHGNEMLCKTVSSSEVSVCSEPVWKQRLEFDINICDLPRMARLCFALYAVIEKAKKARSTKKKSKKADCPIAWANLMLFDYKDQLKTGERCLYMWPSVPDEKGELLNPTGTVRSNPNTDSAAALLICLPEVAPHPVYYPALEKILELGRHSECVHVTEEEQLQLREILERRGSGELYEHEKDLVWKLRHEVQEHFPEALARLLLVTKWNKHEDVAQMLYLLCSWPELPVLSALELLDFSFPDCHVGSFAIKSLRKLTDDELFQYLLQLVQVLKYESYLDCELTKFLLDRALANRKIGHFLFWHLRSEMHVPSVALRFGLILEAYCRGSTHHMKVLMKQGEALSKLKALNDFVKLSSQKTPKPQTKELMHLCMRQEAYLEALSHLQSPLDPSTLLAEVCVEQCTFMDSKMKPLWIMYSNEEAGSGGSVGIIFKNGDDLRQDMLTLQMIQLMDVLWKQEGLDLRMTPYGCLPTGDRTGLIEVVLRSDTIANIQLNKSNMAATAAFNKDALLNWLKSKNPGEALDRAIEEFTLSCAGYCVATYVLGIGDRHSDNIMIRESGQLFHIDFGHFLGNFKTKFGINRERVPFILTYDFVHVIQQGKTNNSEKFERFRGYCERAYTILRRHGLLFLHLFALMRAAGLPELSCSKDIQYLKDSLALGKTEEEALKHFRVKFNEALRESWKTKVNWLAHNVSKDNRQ
As to the kind of experiment: Inhibition of PI3Kdelta (unknown origin).

Consider four compounds from ChEMBL document CHEMBL4725342, “Design, synthesis and structure-activity relationship study of piperazinone-containing thieno[3,2-d]pyrimidine derivatives as new PI3Kδ inhibitors” (Bioorg Med Chem Lett, 2020).

Bounds are passed on as bounds.

What is called IC50 is the concentration at which inhibition is half-maximal.

Chain of Phosphatidylinositol 4,5-bisphosphate 3-kinase catalytic subunit gamma isoform (P48736 whole entry, canonical isoform): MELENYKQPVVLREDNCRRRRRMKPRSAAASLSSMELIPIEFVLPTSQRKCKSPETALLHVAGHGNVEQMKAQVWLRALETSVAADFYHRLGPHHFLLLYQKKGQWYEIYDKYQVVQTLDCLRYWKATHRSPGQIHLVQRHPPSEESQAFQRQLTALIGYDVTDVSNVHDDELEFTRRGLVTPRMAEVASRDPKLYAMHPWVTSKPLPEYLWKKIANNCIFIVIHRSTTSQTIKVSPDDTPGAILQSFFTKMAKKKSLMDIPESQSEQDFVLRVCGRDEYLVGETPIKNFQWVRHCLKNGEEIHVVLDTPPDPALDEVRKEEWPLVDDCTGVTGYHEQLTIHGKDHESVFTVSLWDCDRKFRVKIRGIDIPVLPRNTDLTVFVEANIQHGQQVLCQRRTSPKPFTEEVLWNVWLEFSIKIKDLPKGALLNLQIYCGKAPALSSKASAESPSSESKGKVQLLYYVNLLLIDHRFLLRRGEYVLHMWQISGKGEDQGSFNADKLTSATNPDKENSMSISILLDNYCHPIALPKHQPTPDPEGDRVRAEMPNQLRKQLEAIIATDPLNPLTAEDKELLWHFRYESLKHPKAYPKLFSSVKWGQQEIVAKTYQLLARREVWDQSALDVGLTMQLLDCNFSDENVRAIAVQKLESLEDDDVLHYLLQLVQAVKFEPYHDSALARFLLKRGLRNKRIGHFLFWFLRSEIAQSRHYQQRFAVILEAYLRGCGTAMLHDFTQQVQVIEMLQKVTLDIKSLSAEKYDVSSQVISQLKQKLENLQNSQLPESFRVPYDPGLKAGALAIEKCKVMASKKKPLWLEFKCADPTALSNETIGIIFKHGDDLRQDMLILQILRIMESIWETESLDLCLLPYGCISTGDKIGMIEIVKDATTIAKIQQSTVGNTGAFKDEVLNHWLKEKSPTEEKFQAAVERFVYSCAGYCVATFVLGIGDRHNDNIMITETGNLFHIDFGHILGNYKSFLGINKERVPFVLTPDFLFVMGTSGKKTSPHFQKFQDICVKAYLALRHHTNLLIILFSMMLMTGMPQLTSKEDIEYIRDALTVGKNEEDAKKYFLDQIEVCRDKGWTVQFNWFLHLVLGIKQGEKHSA
Chain of Phosphatidylinositol 4,5-bisphosphate 3-kinase catalytic subunit alpha isoform (P42336 whole entry, canonical isoform): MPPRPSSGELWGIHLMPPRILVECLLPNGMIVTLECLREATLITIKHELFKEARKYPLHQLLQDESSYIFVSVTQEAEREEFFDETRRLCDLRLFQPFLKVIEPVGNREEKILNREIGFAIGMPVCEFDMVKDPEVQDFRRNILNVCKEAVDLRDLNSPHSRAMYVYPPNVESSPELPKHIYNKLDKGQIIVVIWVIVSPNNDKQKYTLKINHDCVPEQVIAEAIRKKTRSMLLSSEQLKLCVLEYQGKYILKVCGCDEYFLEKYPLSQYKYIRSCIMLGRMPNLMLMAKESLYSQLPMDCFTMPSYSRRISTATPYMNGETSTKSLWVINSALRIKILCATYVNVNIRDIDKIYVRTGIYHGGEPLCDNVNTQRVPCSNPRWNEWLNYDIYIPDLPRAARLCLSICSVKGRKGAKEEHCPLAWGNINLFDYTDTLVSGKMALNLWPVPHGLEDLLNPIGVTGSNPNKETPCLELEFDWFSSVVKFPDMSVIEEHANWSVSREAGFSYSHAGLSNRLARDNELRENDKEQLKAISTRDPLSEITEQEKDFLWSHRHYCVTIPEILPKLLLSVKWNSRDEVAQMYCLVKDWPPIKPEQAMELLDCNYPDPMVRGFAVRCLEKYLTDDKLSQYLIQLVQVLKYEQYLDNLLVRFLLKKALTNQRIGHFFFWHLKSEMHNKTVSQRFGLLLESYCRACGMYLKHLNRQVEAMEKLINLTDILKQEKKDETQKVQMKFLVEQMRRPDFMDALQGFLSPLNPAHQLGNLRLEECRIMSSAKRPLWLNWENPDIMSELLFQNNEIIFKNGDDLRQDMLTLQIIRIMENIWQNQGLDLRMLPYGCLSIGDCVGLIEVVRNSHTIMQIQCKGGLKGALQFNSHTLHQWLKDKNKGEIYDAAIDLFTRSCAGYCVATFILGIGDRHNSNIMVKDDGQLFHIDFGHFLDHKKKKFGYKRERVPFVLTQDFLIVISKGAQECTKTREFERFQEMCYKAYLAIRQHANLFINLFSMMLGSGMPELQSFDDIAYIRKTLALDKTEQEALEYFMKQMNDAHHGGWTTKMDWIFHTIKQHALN

As for `C=CCN1CCN(Cc2cc3nc(-n4c(CC)nc5ccccc54)nc(N4CCOCC4)c3s2)C(=O)C1`, the IC50 was 470 nM in the test on JeKo-1; over 10000 nM in the test with OCI-Ly10; over 20000 nM with HEK293; over 20000 nM with Vero; 266 nM in [1]; over 20000 nM with L02. Besides, the IC50 in the test with OCI-Ly3 is 8600 nM; in [2] it was 295 nM; in [3] it was 232 nM; with SU-DHL-6, 570 nM; in [4], 1.6 nM.
As to `CCc1nc2ccccc2n1-c1nc(N2CCOCC2)c2sc(CN3CCN(C4CCCC4)C(=O)C3)cc2n1`, the IC50 was 170 nM in the test with JeKo-1; over 10000 nM in the test on OCI-Ly10; over 20000 nM with HEK293; over 20000 nM in the test with Vero; over 500 nM in [1]; over 20000 nM with L02. Also, the IC50 with OCI-Ly3 is 2800 nM; in [2], 250 nM; in test [3], over 500 nM; in the test on SU-DHL-6, 180 nM; in [4] it was 2.1 nM.
For `CCc1nc2ccccc2n1-c1nc(N2CCOCC2)c2sc(CN3CCN(C4CCCC4)CC3=O)cc2n1`, the IC50 in the test on JeKo-1 is 560 nM; in the test with OCI-Ly10, over 10000 nM; with HEK293, over 20000 nM; with Vero, over 20000 nM; in [1], 370 nM; with L02 it was over 20000 nM. In addition, the IC50 with OCI-Ly3 is 6900 nM; in test [2], 243 nM; in test [3], over 500 nM; in the test on SU-DHL-6, 530 nM; in test [4] it was 2.9 nM.
As for `CCc1nc2ccccc2n1-c1nc(N2CCOCC2)c2sc(CN3CCN(C(=O)C4CC4)CC3=O)cc2n1`, the IC50 in the test on JeKo-1 was 190 nM; in the test on OCI-Ly10 it was 7600 nM; in the test with HEK293, over 20000 nM; with Vero, over 20000 nM; in test [1] it was 185 nM; in the test with L02, over 20000 nM. The IC50 with OCI-Ly3 stood at 2200 nM; in [2] it was 84 nM; in test [3], 137 nM; in the test on SU-DHL-6 it was 100 nM; in test [4] it was 1.1 nM.
